Measurements taken from publication PMC2572567 (Biochemical pharmacology, 2008).

Columns and labels:
heart rate = details: Starling heart-lung preparation of the dog; cited from earlier work
BChE in rat heart = BChE in rat heart (Rattus norvegicus, UniProt Q9JKC1); experiment: Radiometric cholinesterase assay, BChE activity in cardiac homogenates; format: biochemical
[1] = molecular target: T1, muscarinic receptors in heart (Rattus norvegicus, UniProt P10980); experiment: [3H]oxotremorine-M displacement assay, cardiac membranes; format: binding; details: for [3H]Oxotremorine-M maximum displacement: 1 nM [3H]OXO, 21°C, 90 min, mean ± S.E.
T1 sequence (P10980 1-466): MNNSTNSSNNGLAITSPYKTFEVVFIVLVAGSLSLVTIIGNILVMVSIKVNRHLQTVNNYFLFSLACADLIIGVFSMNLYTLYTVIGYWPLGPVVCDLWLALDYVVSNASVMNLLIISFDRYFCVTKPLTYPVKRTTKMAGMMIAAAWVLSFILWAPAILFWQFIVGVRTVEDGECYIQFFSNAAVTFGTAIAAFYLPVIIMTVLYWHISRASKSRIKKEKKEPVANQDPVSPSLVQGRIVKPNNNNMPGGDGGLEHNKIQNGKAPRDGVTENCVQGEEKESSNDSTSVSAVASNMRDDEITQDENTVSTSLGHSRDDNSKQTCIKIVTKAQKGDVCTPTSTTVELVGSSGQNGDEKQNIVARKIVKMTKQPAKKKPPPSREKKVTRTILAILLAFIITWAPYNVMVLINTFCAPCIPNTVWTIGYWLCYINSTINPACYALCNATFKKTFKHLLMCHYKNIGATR

[2] = test system: muscarinic receptors in cortex; experiment: [3H]oxotremorine-M displacement assay, cortical membranes; format: binding, rat; details: for [3H]Oxotremorine-M maximum displacement: 1 nM [3H]OXO, 21°C, 90 min, mean ± S.E.
[3] = test system: cardiac muscarinic receptors; details: cited from earlier work
rats [4] = details: cited from earlier work
rats [5] = details: aged versus adult rats; cited from earlier work
AChE in rat heart = molecular target: T2, AChE in rat heart (Rattus norvegicus, UniProt P37136); experiment: Radiometric cholinesterase assay, AChE activity in cardiac homogenates; format: biochemical; details: heart and cortex (Tables 2 and 3)
T2 sequence (P37136 32-614): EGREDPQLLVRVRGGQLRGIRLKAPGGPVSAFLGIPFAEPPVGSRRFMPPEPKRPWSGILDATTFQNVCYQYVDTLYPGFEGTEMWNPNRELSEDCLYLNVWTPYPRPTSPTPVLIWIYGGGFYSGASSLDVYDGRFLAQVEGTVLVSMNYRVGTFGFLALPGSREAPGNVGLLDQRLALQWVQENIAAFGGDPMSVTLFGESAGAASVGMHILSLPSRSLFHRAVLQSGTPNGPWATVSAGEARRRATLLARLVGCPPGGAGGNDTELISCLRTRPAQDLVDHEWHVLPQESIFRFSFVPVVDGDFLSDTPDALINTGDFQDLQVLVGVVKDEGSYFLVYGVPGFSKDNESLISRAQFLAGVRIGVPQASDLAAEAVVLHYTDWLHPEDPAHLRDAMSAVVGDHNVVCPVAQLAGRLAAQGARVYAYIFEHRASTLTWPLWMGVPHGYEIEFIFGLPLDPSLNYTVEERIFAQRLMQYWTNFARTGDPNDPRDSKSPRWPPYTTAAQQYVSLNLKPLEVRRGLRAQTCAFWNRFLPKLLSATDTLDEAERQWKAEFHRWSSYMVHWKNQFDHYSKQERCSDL

Sequence of BChE in rat heart (Q9JKC1 24-597): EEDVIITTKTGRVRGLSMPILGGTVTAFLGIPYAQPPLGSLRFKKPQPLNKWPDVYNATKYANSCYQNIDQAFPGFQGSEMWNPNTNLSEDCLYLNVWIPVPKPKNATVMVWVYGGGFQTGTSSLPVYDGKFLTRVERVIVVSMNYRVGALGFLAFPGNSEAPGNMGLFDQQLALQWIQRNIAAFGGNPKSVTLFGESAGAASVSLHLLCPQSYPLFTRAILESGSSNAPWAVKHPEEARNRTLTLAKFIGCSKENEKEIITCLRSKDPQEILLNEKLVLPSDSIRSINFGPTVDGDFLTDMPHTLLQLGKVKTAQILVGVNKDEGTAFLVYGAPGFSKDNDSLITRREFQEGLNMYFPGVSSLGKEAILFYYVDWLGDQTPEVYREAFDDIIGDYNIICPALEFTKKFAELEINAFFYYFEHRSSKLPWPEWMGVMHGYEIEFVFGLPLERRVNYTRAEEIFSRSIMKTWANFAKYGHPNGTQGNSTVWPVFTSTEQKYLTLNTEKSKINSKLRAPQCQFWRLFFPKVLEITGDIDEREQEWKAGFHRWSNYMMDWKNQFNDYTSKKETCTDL

C=CC[N+](C)(C)c1ccc(CCC(=O)CCc2ccc([N+](C)(C)CC=C)cc2)cc1.[Br-].[Br-] [BW 284C51, 1,5-bis (allyldimethylammoniumphenyl) pentane-3-dibromide]
Effect on heart rate (heart rate): had no effect

CCOP(=O)(OCC)Oc1nc(Cl)c(Cl)cc1Cl [Chlorpyrifos oxon, O,O′-diethyl-O-3,5,6-trichloro-2-pyridinyl phosphate]
Sensitivity of BChE relative to AChE to inhibition in vitro (BChE in rat heart; heart and cortex, both age groups): 3.5–12 times
[3H]Oxotremorine-M maximum displacement ([1]; adult heart membranes): 50 ± 3%
[3H]Oxotremorine-M maximum displacement ([1]; aging heart membranes): 39 ± 4%
[3H]Oxotremorine-M maximum displacement ([2]; adult cortex membranes): 51 ± 2%
[3H]Oxotremorine-M maximum displacement ([2]; aging cortex membranes): 49 ± 3%
Nature of interaction with cardiac muscarinic receptors ([3H]OXO binding sites) [3]: irreversible

CCOP(=S)(OCC)Oc1nc(Cl)c(Cl)cc1Cl [Chlorpyrifos, O,O′-diethyl-O-3,5,6-trichloro-2-pyridinyl phosphorothioate]
Displacement of [3H]OXO radioligand binding (in words) ([1]; heart, adult and aging rats, 30 pM-3 μM): did not displace
Displacement of [3H]OXO radioligand binding (in words) ([2]; cortex, adult and aging rats, 30 pM-3 μM): did not displace
oral LD50 (rats [4]): about 100 mg/kg
Sensitivity of aged rats to acute toxicity relative to adults (rats [5]): similar

COP(=O)(OC)Oc1ccc([N+](=O)[O-])cc1 [Methyl paraoxon, O,O′-dimethyl-p-nitrophenyl-phosphate]
Sensitivity of AChE relative to BChE to inhibition (AChE in rat heart): ~ 2 fold
[3H]Oxotremorine-M maximum displacement ([1]; adult heart membranes): 37 ± 3%
[3H]Oxotremorine-M maximum displacement ([1]; aging heart membranes): 29 ± 3%
[3H]Oxotremorine-M maximum displacement ([2]; adult cortex membranes): 33 ± 2%
[3H]Oxotremorine-M maximum displacement ([2]; aging cortex membranes): 36 ± 2%
[3H]OXO displacement IC50 in aging cortex, fold higher than adult cortex ([2]; aging versus adult cortex): ~ 10 fold

COP(=S)(OC)Oc1ccc([N+](=O)[O-])cc1 [Methyl parathion, O,O′-dimethyl-p-nitrophenyl-phosphorothioate]
[3H]Oxotremorine-M maximum displacement ([1]; adult heart membranes): 31 ± 3%
[3H]Oxotremorine-M maximum displacement ([1]; aging heart membranes): 26 ± 2%
[3H]Oxotremorine-M maximum displacement ([2]; adult cortex membranes): 22 ± 3%
[3H]Oxotremorine-M maximum displacement ([2]; aging cortex membranes): 20 ± 3%
Nature of interaction with cardiac muscarinic receptors ([3H]OXO binding sites) [3]: reversibly
oral LD50 (rats [4]): about 20 mg/kg

CC(C)NP(=O)(NC(C)C)OP(=O)(NC(C)C)NC(C)C [iso-OMPA, tetraisopropylpyrophosphoramide]
IC50 (BChE in rat heart): 200 nM
IC50 against BChE in heart, fold lower than in cortex (BChE in rat heart; adult and aging, heart versus cortex): ~ 10 fold

CCOP(=S)(OCC)Oc1ccc([N+](=O)[O-])cc1 [parathion]
Sensitivity of aged rats to acute toxicity relative to adults (rats [5]): 3 fold
